Source: ChEMBL document CHEMBL1649069, “Discovery of a series of phosphonic acid-containing thiazoles and orally bioavailable diamide prodrugs that lower glucose in diabetic animals through inhibition of fructose-1,6-bisphosphatase” (J Med Chem, 2011)
pIC50: −log10 of the molar value. Active and inactive are the calls of the source. The rule behind the calls is not given here.

Columns and labels:
[1] = biological target: T1, Fructose-1,6-bisphosphatase 1 (Homo sapiens, UniProt P09467)
T1 sequence (P09467 whole entry): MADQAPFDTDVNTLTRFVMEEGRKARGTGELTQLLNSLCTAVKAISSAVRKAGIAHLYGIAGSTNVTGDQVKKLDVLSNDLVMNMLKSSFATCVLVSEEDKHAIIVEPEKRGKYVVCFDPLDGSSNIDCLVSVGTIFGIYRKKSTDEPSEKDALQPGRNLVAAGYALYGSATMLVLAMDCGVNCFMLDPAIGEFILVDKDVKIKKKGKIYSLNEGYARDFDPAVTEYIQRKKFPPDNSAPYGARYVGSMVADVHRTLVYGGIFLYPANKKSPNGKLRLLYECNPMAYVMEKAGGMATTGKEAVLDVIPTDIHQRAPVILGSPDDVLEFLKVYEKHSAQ
Description: Inhibition of human liver FBP

Rattus norvegicus [2] = assay: Antidiabetic activity in Sprague-Dawley rat assessed as decrease in glucose Cmax at 10 mg/kg, iv; format: functional
Rattus norvegicus [3] = assay: Antidiabetic activity in Sprague-Dawley rat assessed as decrease in glucose Cmax at 10 mg/kg, po; format: functional
[4] = Plasma protein binding in human; format: ADME, cell-free; settings: read-out: PPB (converted)
[5] = Plasma protein binding in Sprague-Dawley rat; format: ADME, cell-free; settings: read-out: PPB (converted)
[6] = Half life in Sprague-Dawley rat; format: ADME, organism-based; settings: in vivo
[7] = Clearance in Sprague-Dawley rat; format: ADME, organism-based; settings: in vivo
[8] = (§1) Oral bioavailability in Sprague-Dawley rat; format: ADME, organism-based; settings: Sprague-Dawley, in vivo
[9] = Volume of distribution in Sprague-Dawley rat; format: ADME, organism-based; settings: in vivo
Rattus norvegicus [10] = assay: Antidiabetic activity in Sprague-Dawley rat assessed as decrease in glucose Cmax at 30 mg/kg
[11] = Oral bioavailability in rat; format: ADME, organism-based; settings: in vivo
[12] = Oral bioavailability in dog; format: ADME, organism-based, Canis lupus familiaris; settings: in vivo
Rattus norvegicus [13] = assay: Antihyperglycemic activity in Zucker fa/fa rat assessed as reduction in glucose level at 0.4 % w/w administered as food mixture; format: functional, organism-based
Rattus norvegicus [14] = assay: as §1; format: ADME, organism-based; settings: in vivo

pIC50 [1]	Compound	inhibition in vivo at 10 mg/kg (Rattus norvegicus [2]) [%]	further results
< 5.00	CCCc1sc(N)nc1-c1ccc(P(=O)(O)O)s1	–	–
–	Nc1nc(-c2ccc(P(=O)(O)O)o2)c(C(=O)OCc2ccccc2)s1	42	–
–	Nc1nc(-c2ccc(F)c(P(=O)(O)O)c2)c(-c2ccccc2)s1	0	–
–	Nc1nc(-c2ccc(P(=O)(O)O)o2)c(Br)s1	20	–
–	COc1ccccc1-c1sc(N)nc1-c1ccc(P(=O)(O)O)o1	66	–
6.02	Nc1nc(C(=O)NCP(=O)(O)O)c(-c2cccs2)s1	–	–
6.40	CCc1nc(-c2ccc(P(=O)(O)O)o2)c(CC(C)C)s1	–	–
6.66	CC(C)Cc1sc(CO)nc1-c1ccc(P(=O)(O)O)o1	8	–
–	CCOC(=O)c1sc(N)nc1-c1ccc(P(=O)(O)O)o1	76	–
–	CCOC(=O)CNP(=O)(Oc1ccccc1)c1ccc(-c2nc(N)sc2CC(C)C)o1 (stereo not drawn)	–	inhibition in vivo at 10 mg/kg (Rattus norvegicus [3]): 51%
5.56	CC(C)Cc1sc(C(N)=O)nc1-c1ccc(P(=O)(O)O)o1	–	–
7.89	Nc1nc(-c2ccc(P(=O)(O)O)o2)c(-c2ccc(Cl)cc2)s1	40	–
–	CCOC(=O)OC(C)OP(=O)(OC(C)OC(=O)OCC)c1ccc(-c2nc(N)sc2CC(C)C)o1 (stereo not drawn)	–	inhibition in vivo at 10 mg/kg (Rattus norvegicus [3]): 12%
–	Cc1nc(-c2ccc(P(=O)(O)O)o2)c(CC(C)C)s1	55	–
6.74	CC(C)Cc1sc(Cl)nc1-c1ccc(P(=O)(O)O)o1	–	–
–	Nc1nc(-c2ccc(P(=O)(O)O)o2)c(-c2ccco2)s1	21	–
7.85	COC(=O)c1ccc(-c2sc(N)nc2-c2ccc(P(=O)(O)O)o2)cc1	78	–
7.68	CSc1ccc(-c2sc(N)nc2-c2ccc(P(=O)(O)O)o2)cc1	72	–
7.62	CC(C)(C)Sc1sc(N)nc1-c1ccc(P(=O)(O)O)o1	–	–
6.82	Nc1nc(-c2ccc(P(=O)(O)O)o2)c(Cc2ccccc2)s1	–	–

pIC50 [1]	Compound	inhibition in vivo at 10 mg/kg (Rattus norvegicus [2]) [%]	further results
–	CCOC(=O)C(C)(C)NP(=O)(NC(C)(C)C(=O)OCC)c1ccc(-c2nc(N)sc2CC(C)C)o1	–	inhibition in vivo at 10 mg/kg (Rattus norvegicus [3]): 45%
–	Nc1nc(-c2ccc(P(=O)(O)O)o2)c(-c2cccs2)s1	24	–
6.92	Cc1sc(N)nc1-c1ccc(P(=O)(O)O)o1	–	–
5.70	CC(C)Cc1sc(C#N)nc1-c1ccc(P(=O)(O)O)o1	–	–
–	CC(C)Cc1sc(Br)nc1-c1ccc(P(=O)(O)O)o1	3	–
–	CCc1cc(F)c(N)c2nc(-c3ccc(P(=O)(O)O)o3)n(CC(C)C)c12	–	fraction unbound [4]: 0.001; fraction unbound [5]: 0.01; half-life [6]: 45 min; clearance [7]: 4.33 mL/min/kg; bioavailability [8]: 2%; Vd [9]: 0.25 L/kg
–	CCCSc1sc(N)nc1-c1ccc(P(=O)(O)O)o1	82	–
–	CCOC(=O)OCOP(=O)(OCOC(=O)OCC)c1ccc(-c2nc(N)sc2CC(C)C)o1	–	inhibition in vivo at 30 mg/kg (Rattus norvegicus [10]): 40%
–	CCOC(=O)[C@H](C)NP(=O)(N[C@@H](C)C(=O)OCC)c1ccc(-c2nc3c(N)c(F)cc(CC)c3n2CC(C)C)o1	–	bioavailability [11]: > 10%; bioavailability [12]: > 10%; bioavailability [8]: 5%
–	CC(C)(C)c1ccc(-c2sc(N)nc2-c2ccc(P(=O)(O)O)o2)cc1	6	–
6.60	CCCc1sc(N)nc1-c1cccc(P(=O)(O)O)c1	0	–
–	CCOC(=O)[C@H](C)NP(=O)(N[C@@H](C)C(=O)OCC)c1ccc(-c2nc(N)sc2CC(C)C)o1	–	inhibition in vivo at 10 mg/kg (Rattus norvegicus [3]): 59%; inhibition (Rattus norvegicus [13]): Active
7.62	CC(C)Sc1sc(N)nc1-c1ccc(P(=O)(O)O)o1	48	–
7.80	Nc1nc(-c2ccc(P(=O)(O)O)o2)c(N2CCOCC2)s1	75	–
–	Nc1nc(-c2ccc(P(=O)(O)O)o2)c(-c2ccc(F)cc2)s1	60	–
5.30	CC(C)Cc1sc(-c2cccnc2)nc1-c1ccc(P(=O)(O)O)o1	–	–
7.92	Nc1nc(-c2ccc(P(=O)(O)O)o2)c(-c2ccc3ccccc3c2)s1	20	–
7.39	CS(=O)(=O)c1ccc(-c2sc(N)nc2-c2ccc(P(=O)(O)O)o2)cc1	78	–
6.52	Nc1nc(-c2ccc(P(=O)(O)O)o2)c(Sc2ccccc2)s1	–	–
–	CC(C)Cc1sc(N)nc1-c1ccc(P(=O)(O)O)o1 [MB-05032]	65	fraction unbound [4]: 0.07; fraction unbound [5]: 0.1; half-life [6]: 39 min; clearance [7]: 4 mL/min/kg; F (Rattus norvegicus [14]): 4%; Vd [9]: 0.18 L/kg

pIC50 [1]	Compound	inhibition in vivo at 10 mg/kg (Rattus norvegicus [2]) [%]	further results
7.72	Nc1nc(-c2ccc(P(=O)(O)O)o2)c(C2CCC2)s1	–	–
7.30	CCCc1sc(N)nc1C(=O)OCP(=O)(O)O	63	–
–	CCOC(=O)[C@H](C)NP(=O)(Oc1ccccc1)c1ccc(-c2nc(N)sc2CC(C)C)o1 (stereo partly drawn)	–	inhibition in vivo at 30 mg/kg (Rattus norvegicus [10]): 46%
7.66	COc1ccc(-c2sc(N)nc2-c2ccc(P(=O)(O)O)o2)cc1	63	–
5.89	Nc1nc(-c2cccc(P(=O)(O)O)c2)cs1	–	–
6.10	CC(C)Cn1c(-c2ccc(P(=O)(O)O)o2)nc2c(N)ncnc21	–	–
7.48	CCSc1sc(N)nc1-c1ccc(P(=O)(O)O)o1	–	–
7.00	Nc1nc(-c2ccc(P(=O)(O)O)o2)c(I)s1	-2	–
7.85	Nc1nc(-c2ccc(P(=O)(O)O)o2)c(-c2ccccc2)s1	76	–
7.70	Nc1nc(-c2ccc(P(=O)(O)O)o2)c(CC2CC2)s1	–	–
7.68	COc1cccc(-c2sc(N)nc2-c2ccc(P(=O)(O)O)o2)c1	0	–
–	Nc1nc(-c2ccc(P(=O)(O)O)o2)c(-c2ccc(-c3ccccc3)cc2)s1	36	–
–	Nc1nc(-c2ccc(P(=O)(O)O)o2)c(Cl)s1	17	–
–	CC(C)Cc1sc(N)nc1-c1ccc(P2(=O)OCC[C@H](c3cccc(Cl)c3)O2)o1 (stereo partly drawn)	–	inhibition in vivo at 30 mg/kg (Rattus norvegicus [10]): 53%
7.49	CC(=O)c1ccc(-c2sc(N)nc2-c2ccc(P(=O)(O)O)o2)cc1	43	–
< 5.00	Nc1nc(-n2ccc(P(=O)(O)O)c2)c(-c2ccccc2)s1	–	–
6.05	CSc1nc(-c2ccc(P(=O)(O)O)o2)c(CC(C)C)s1	–	–
5.00	Cc1oc(-c2nc(N)sc2-c2ccccc2)nc1P(=O)(O)O	–	–
5.92	C=Cc1nc(-c2ccc(P(=O)(O)O)o2)c(CC(C)C)s1	–	–
